In patent publication US20190054035A1, “SELF-ASSEMBLED PEPTIDE NANOFIBERS AND USE THEREOF FOR TARGETED DRUG DELIVERY” (Yissum Research Development Company of the Hebrew …, priority 2017, published 2019):
“Also recorded” adds a separate entry of the source. Where a SMILES comes first, the peptide text is derived from it. The star is where a group is joined. Fmoc = O=C(OCC1c2ccccc2-c2ccccc21)*; Cbz = O=C(OCc1ccccc1)*

How the values were obtained:
cathepsin L = target: T1, cathepsin L (Homo sapiens, UniProt P07711); test: Cleavage of substrate peptides by cathepsin L, fragment analysis by LC-MS; type: biochemical; details: 3 hours at 37° C., pH 5.5, LC-MS fragment analysis
T1 construct: made in house; host or cells: E. coli BL21(DE3)pLysS
T1 sequence (P07711 18-333 limits assumed): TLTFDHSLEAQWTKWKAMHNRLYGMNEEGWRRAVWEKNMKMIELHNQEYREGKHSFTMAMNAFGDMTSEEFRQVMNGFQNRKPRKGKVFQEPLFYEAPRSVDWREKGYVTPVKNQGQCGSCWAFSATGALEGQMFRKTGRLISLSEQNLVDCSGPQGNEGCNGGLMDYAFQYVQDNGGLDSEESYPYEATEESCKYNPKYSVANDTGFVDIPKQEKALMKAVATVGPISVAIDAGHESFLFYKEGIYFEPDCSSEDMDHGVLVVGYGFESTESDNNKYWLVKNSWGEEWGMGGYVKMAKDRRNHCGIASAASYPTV
Method: (§1) Each peptide (1 nmole) was treated with […] cathepsin B or cathepsin L (generated by transformation of E. coli BL21(DE3)pLysS strain with the pET3a/procathepsin B or procathepsin L vectors) or acetate buffer vehicle (50 mM acetate, 5 mM MgCl2, 2 mM DTT, adjusted to pH 5.5) for 3 hours at 37° C. Next, enzymes were precipitated by an hour incubation at −80° C. in 80% cold methanol followed by 10 minutes of 6000 g centrifugation at 4° C. Supernatant volume was reduced to about 15 μl under vacuum, adjusted to a final volume of 30 μl with methanol and analyzed by LCMS equipped with C18 reverse phase.

[1] = Self-assembly of TPSs into nanofibers, electron microscopy (TEM/SEM); type: physicochemical; details: for Diameter of TPS nanofibers / self-assembly into ordered nanofibers: TEM; for Diameter of TPS nanofibers: solvent switching DMSO to water; for self-assembly into ordered nanofibers: 5 mg/ml (1 mg/ml TPS8, TPS9)
Method: Lyophilized peptides were dissolved in DMSO to a concentration of 100 mg/ml and then diluted in DDW to the indicated final concentration.
Transmission electron microscopy (TEM) analysis was performed by applying 10 μl of samples to a 200 or 400-mesh copper grids covered by carbon-stabilized Formvar film (SPI, West Chester, Pa.). The samples were allowed to adsorb for 2 minutes before excess fluid was blotted off. Samples were negatively stained by depositing 10 μl of 2% uranyl acetate on the grid and allowing it to adsorb for 2 minutes before excess fluid was blotted off. Except the sample in FIG. 9E, all samples were negatively stained. TEM micrographs were recorded using a JEOL 1200EX or JEOL JEM-1400Plus electron microscope operating at different kV.
Scanning Electron Microscopy (SEM) samples were prepared as described above for TEM on a 400-mesh copper grids, without uranyl acetate staining, and viewed using FBI Magellan™ 400L system.

[2] = Kinetics of TPS4 self-assembly by turbidity; type: physicochemical; details: 0.5, 1 or 2 mg/ml, 37° C., first 5 hours
Method: Freshly prepared aliquots of 0.5, 1 or 2 mg/ml of TPS4 were placed in triplicates in a 96-well plate, 100 ul/well. Plate was placed at 37° C. in a Biotek Cytation 3 plate reader (Winooski, Vt., USA) and absorbance at 350 nm was measured every 2 minutes during 5 hours.

4T1 tumor lysates = test: Nanofibers degradation by 4T1 tumor lysates; type: biochemical, mice
Method: (§2) Tissue lysates were prepared as previously described. Assembly of TPS4 in triplicates was performed for 4 hours in acetate buffer as described in FIG. 6B. Next, 100 μg of lysates from 4T1 tumor or muscles, or RIPA vehicle control (1% Tergitol-type NP-40 (nonyl phenoxypolyethoxylethanol), 0.1% SDS, 0.5% sodium deoxycholate) were added in acetate buffer. The absorbance was read at 350 nm after gentle shaking at 37° C. for indicated times using a BioTek plate reader.

[3] = test system: lysates from mice muscles; test: Nanofibers degradation by mice muscle lysates; type: biochemical; details: 0.5 mg/ml TPS4, mice muscle lysates, first ten hours
Method: as §2

MDA-MB 231 cells = test: TPS4 nanofibers cytotoxicity, methylene blue assay; type: cell-based, human; details: 0.5 mg/ml nanofibers, 24 or 48 hours
Method: MDA-MB 231 human breast adenocarcinoma cells were cultured in Dulbecco's modified eagle's medium (DMEM) supplemented with 10% fetal bovine serum (FBS), 1% penicillin and 1% streptomycin in a humidified atmosphere of 5% CO2 at 37° C. One day prior to treatment MDA-MB 231 cells (7×10^3 cells/well) were cultured in a 96-well plate. The media of TPS4 that was assembled in DMEM was removed by centrifugation (14,000 rpm, 4° C.) and the nanofibers were resuspended in DMEM supplemented with 10% […], 1% penicillin and 1% streptomycin. Cells in triplicates were incubated with 0.5 mg/ml of TPS4 nanofibers (final concentration of 0.1% DMSO was kept constant) in growth medium at 37° C. After 24 or 48 hours of treatment, cell survival was determined by standard methylene blue assay.

cathepsin B [4] = target: T2, cathepsin B (Homo sapiens, UniProt P07858); test: Cleavage of substrate peptides by cathepsin B, fragment analysis by LC-MS; type: biochemical; details: 3 hours at 37° C., pH 5.5, LC-MS fragment analysis
T2 construct: made in house; host or cells: E. coli BL21(DE3)pLysS
Method: as §1

cathepsin B [5] = target: T2, cathepsin B; test: Turbidity analysis of TPS4 nanofiber degradation by cathepsin B; type: biochemical; details: 0.5, 1 and 2 mg/ml TPS4, 37° C.
Method: Turbidity analysis for TPS4 solutions was conducted using triplicates of freshly prepared solutions as described above in a 96 well plate. Aliquots of 1, 2 or 4 mg/ml were allowed to assemble for 4-5 hours at room temperature. Next, 0.064, 0.128 or 0.255 μM of cathepsin B or acetate buffer vehicle were added, diluting the samples to 0.5, 1, and 2 mg/ml, respectively. The plate was placed at 37° C. in a Biotek Synergy HT plate reader (Winooski, Vt., USA) and absorbance was measured for 12 hours as described above. After 24 hours since enzyme addition, a color picture was taken and the turbidity was measured again.

Row | Compound | Number of amino acids removed from each TPS after cathepsin treatment, Cat L (cathepsin L) | Diameter of TPS nanofibers [1] [nm] | Number of amino acids removed from each TPS after cathepsin treatment, Cat B (cathepsin B [4]) | also measured
1 | NCCCC[C@H](NC(=O)[C@H](Cc1ccccc1)NC(=O)[C@H](Cc1ccccc1)NC(=O)OCc1ccccc1)C(=O)N[C@@H](Cc1ccccc1)C(=O)O [TPS4, Cbz-FFKF-OH] (Cbz-FFKF-OH) | 2 | 24 ± 6 | 2 | time to form fibers upon assembly initiation ([1]; microscopic examination (data not shown)): instantly formed fibers; increase in turbidity (absorbance at 350 nm) during self-assembly [2]: up to 2.8±0.6 folds; nanofiber degradation over time (4T1 tumor lysates; 0.5 mg/ml TPS4, 4T1 tumor lysates, turbidity at 350 nm): degraded the majority of TPS4 nanofibers within two hours; remaining nanofibers relative to vehicle (absorbance at 350 nm) (4T1 tumor lysates; overnight lysate treatment, all concentrations tested): less than 20%; nanofiber degradation at the lowest concentration (4T1 tumor lysates; overnight lysate treatment, lowest TPS4 concentration): full degradation; nanofiber degradation over time [3]: limited effect; cytotoxicity / growth inhibition (MDA-MB 231 cells): no growth inhibition; also recorded: no cytotoxicity; degradation of assembled nanofibers by cathepsin B (turbidity at 350 nm) (cathepsin B [5]): significant and robust degradation
2 | Ac-FFKF-OH [TPS2] | 2 | 12 ± 1 | 2 | 
3 | Ac-FFKF-amide [TPS7] | 2 |  | 1 | self-assembly into ordered nanofibers [1]: excluding
4 | Cbz-FFKF-NH2 [TPS8] | 2 | 30 ± 6 |  | 
5 | Fmoc-FFKF-NH2 [TPS9] |  | 13 ± 4 |  | 
6 | Fmoc-FFKF-OH (SMILES NCCCC[C@H](NC(=O)[C@H](Cc1ccccc1)NC(=O)[C@H](Cc1ccccc1)NC(=O)OCC1c2ccccc2-c2ccccc21)C(=O)N[C@@H](Cc1ccccc1)C(=O)O) [TPS3] | 2 | 14 ± 2 |  | 
7 | Fmoc-Phe-Lys-Phe-NH2 [TPS5] | 1 | 66 ± 13 | 1 | 
8 | NH2-FFKF-OH (H-FFKF-OH) [TPS1] | 2 | 310 ± 80 | 1 | 
9 | NH2-FFKF-amide [TPS6] | 2 |  | 1 | self-assembly into ordered nanofibers [1]: excluding
